Laboratory results published in paper PMC8647500 (Molecular Brain, 2021).
Structures can show the parent of a compound that is named as a salt.

Key:
R-GenGAR-DA1.2 [1] = molecular target: T1, R-GenGAR-DA1.2 (Homo sapiens, UniProt P21728); assay: Dual-color time-lapse imaging in rat primary hippocampal neurons co-expressing DA1.2 and NE1m, red channel; format: cell-based
Description: (§1) Primary cultures of rat hippocampal neurons were prepared similarly to that described previously. Female pregnant Wistar/ST rats (total 8 rats) arrived from Japan SLC on the day of the experiment. A pregnant rat with embryonic rats (embryonic days 19) was killed by CO2 inhalation and then embryos (10 embryos per pregnant rat) were removed and decapitated. […] To dissociate hippocampal neurons, hippocampi were treated with 10 units/ml papain (LS003126, Worthington Biochemical) for 10 min at 37 °C. […] Half of the medium was removed and replaced with fresh medium every 7 days.
(§2) Stock solutions for the compounds were dissolved in the appropriate vehicle, and a volume from 0.95 to 1 µl was prepared in each 1.5-ml microcentrifuge tube. […]
(§3) We used Fiji, a distribution of ImageJ [44], for the preparation of quantification and measurement of all imaging files. […] In order to normalize the fluorescence changes with the amount of biosensor expression, ΔF/F0 was calculated using the intensity before the compound application. […] The image of fluorescence change (ΔF/F0) was represented as the pseudocolor intensity-modulated display mode, where color represents the relative ratio value, whilst the brightness of the color represented the fluorescence intensity of the source images. […]

GRABNE1m [2] = assay: Dual-color time-lapse imaging in rat primary hippocampal neurons co-expressing DA1.2 and NE1m, green channel; format: cell-based
Description: as §1, §2, §3

R-GenGAR-DA1.2 [3] = molecular target: T1, R-GenGAR-DA1.2; assay: Dual-color time-lapse imaging in HeLa cells co-expressing DA1.2 and NE1m, red channel; format: cell-based
Description: (§4) Stock solutions for the compounds were dissolved in the appropriate vehicle, and a volume from 0.95 to 1 µl was prepared in each 1.5-ml microcentrifuge tube. Compounds were mixed with 0.5 ml imaging buffer from the well and applied to the same well at each time point during imaging (Additional file 1: Fig. S4b). For temperature equilibration of the imaging buffer, 0.5 ml of the imaging buffer was transferred from the well into an empty 1.5-ml microcentrifuge tube and then applied to the buffer in the same well; this procedure repeated 5 times (Additional file 1: Fig. S4c). The procedure for the compound application in the time-lapse imaging is shown in Additional file 1: Fig. S5. The ‘ligand’ dissolved in the appropriate vehicle was applied at the imaging time point shown by the arrow; the ‘vehicle’ was applied at the same time point.
as §3

GRABNE1m [4] = assay: Dual-color time-lapse imaging in HeLa cells co-expressing DA1.2 and NE1m, green channel; format: cell-based; details: for NE1m fluorescence response to ligand: NE 1 µM then DA 5 µM
Description: as §4
We used Fiji, a distribution of ImageJ [44], for the preparation of quantification and measurement of all imaging files. Principally, for all images, the background was subtracted, and images were registered by StackReg (http://bigwww.epfl.ch/thevenaz/stackreg/), a Fiji plugin to correct misregistration, if required. Note that the median filter was used for the time-lapse images of the neuron before registration to remove camera noise preventing registration. Then, regions of interests (ROIs) were selected for the first time point in time-lapse imaging or in the images before the compound application, to surround the whole cell body for HeLa cells and a dendrite near the cell body for hippocampal neurons. […] In order to normalize the fluorescence changes with the amount of biosensor expression, ΔF/F0 was calculated using the intensity before the compound application. For the time-lapse experiments, the value used for F0 was the mean intensity before compound application. The image of fluorescence change (ΔF/F0) was represented as the pseudocolor intensity-modulated display mode, where color represents the relative ratio value, whilst the brightness of the color represented the fluorescence intensity of the source images. […]

R-GenGAR-DA1.2 [5] = molecular target: T1, R-GenGAR-DA1.2; details: HeLa cells, all compounds 10 µM
Description: Stock solutions for the compounds were dissolved in the appropriate vehicle, and a volume from 0.95 to 1 µl was prepared in each 1.5-ml microcentrifuge tube. Compounds were mixed with 0.5 ml imaging buffer from the well and applied to the same well at each time point during imaging (Additional file 1: Fig. S4b). For temperature equilibration of the imaging buffer, 0.5 ml of the imaging buffer was transferred from the well into an empty 1.5-ml microcentrifuge tube and then applied to the buffer in the same well; this procedure repeated 5 times (Additional file 1: Fig. S4c). […] The ‘ligand’ dissolved in the appropriate vehicle was applied at the imaging time point shown by the arrow; the ‘vehicle’ was applied at the same time point.

R-GenGAR-DA1.2 [6] = molecular target: T1, R-GenGAR-DA1.2; details: rat primary hippocampal neurons
Description: Primary cultures of rat hippocampal neurons were prepared similarly to that described previously [40]. Female pregnant Wistar/ST rats (total 8 rats) arrived from Japan SLC on the day of the experiment. A pregnant rat with embryonic rats (embryonic days 19) was killed by CO2 inhalation and then embryos (10 embryos per pregnant rat) were removed and decapitated. […] To dissociate hippocampal neurons, hippocampi were treated with 10 units/ml papain (LS003126, Worthington Biochemical) for 10 min at 37 °C. […] Half of the medium was removed and replaced with fresh medium every 7 days.

T1 sequence (P21728 with tags, fused parts or gaps): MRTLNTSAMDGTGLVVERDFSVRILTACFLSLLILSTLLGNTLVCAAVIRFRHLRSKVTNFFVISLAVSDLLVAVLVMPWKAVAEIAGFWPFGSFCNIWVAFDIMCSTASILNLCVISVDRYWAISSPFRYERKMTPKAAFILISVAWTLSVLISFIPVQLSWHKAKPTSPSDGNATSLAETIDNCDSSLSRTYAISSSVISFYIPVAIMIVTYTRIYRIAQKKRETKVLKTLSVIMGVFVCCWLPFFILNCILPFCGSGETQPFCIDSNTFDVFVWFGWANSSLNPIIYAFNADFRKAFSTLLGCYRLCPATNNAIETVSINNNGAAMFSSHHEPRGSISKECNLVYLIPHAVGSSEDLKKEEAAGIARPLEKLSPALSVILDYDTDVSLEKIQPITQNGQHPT
T1 sequence (Q9U6Y8 with tags, fused parts or gaps partner): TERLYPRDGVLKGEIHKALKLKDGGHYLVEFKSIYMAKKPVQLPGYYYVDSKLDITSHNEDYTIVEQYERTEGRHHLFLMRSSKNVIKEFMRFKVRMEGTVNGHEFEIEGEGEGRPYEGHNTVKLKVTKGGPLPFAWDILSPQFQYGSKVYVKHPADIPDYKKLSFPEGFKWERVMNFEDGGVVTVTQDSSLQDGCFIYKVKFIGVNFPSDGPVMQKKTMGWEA

SMILES: NC[C@H](O)c1ccc(O)c(O)c1 [NE, L-noradrenaline bitartrate monohydrate]
- DA1.2 fluorescence response to ligand (R-GenGAR-DA1.2 [1]; NE 1 µM then DA 5 µM): not NE
- NE1m fluorescence response to ligand (GRABNE1m [2]; NE 1 µM): increase in NE1m green fluorescence
- DA1.2 fluorescence response to ligand (R-GenGAR-DA1.2 [3]; NE 1 µM then DA 5 µM): not to NE
- NE1m fluorescence response to ligand (GRABNE1m [4]): increase in green fluorescence

SMILES: NCCc1ccc(O)c(O)c1 [DA, Dopamine]
- NE1m fluorescence response to ligand (GRABNE1m [4]): not DA

SMILES: CN1CCc2cc(Cl)c(O)cc2[C@@H](c2ccccc2)C1 [SCH, R( +)-SCH 23390 hydrochloride]
- effect of antagonist on DA1.2 response to DA (R-GenGAR-DA1.2 [1]; SCH 5 µM): restored
- effect of antagonist on the response of DA1.2 to DA (R-GenGAR-DA1.2 [5]): blocked
- effect of antagonist applied after DA on DA1.2 fluorescence (R-GenGAR-DA1.2 [6]; SCH 5 µM after DA 5 µM): restored to baseline
- effect of antagonist pretreatment on response of DA1.2 to DA (R-GenGAR-DA1.2 [6]; SCH before DA): completely suppressed
- effect of antagonist on DA1.2 response to DA (R-GenGAR-DA1.2 [3]; SCH 5 µM): blocked

SMILES: COC(=O)[C@@H]1[C@H]2C[C@H]3c4[nH]c5ccccc5c4CCN3C[C@@H]2CC[C@@H]1O [YO, yohimbine hydrochloride]
- effect of antagonist on NE1m fluorescence response (GRABNE1m [2]; YO 1 µM): blocked
- effect of antagonist on NE1m fluorescence response (GRABNE1m [4]; YO 1 µM): recovered to its basal level
